Results published in article PMC3605789 (Nature communications, 2013).

Target: T1, inositol monophosphatase (IMPase) (Homo sapiens, UniProt P29218)
T1 sequence (P29218 1-277): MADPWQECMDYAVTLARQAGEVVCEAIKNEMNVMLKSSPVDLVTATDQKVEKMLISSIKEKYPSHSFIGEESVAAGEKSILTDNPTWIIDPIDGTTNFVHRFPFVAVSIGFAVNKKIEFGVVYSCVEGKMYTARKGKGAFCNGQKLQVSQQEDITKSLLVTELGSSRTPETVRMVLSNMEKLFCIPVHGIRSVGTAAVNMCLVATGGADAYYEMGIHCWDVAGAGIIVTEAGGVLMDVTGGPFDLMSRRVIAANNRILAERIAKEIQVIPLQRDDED
Assay: electrospray mass spectrometry of the covalent complex
Format: biochemical

O=c1c2ccccc2[se]n1-c1ccccc1 [ebselen]
IC50: 1.5 µM
